# Data reported in US7834023B2 (Portola Pharmaceuticals, Inc., priority 2006, dated 2010).
# System: human platelet-rich plasma (PRP)
# Test: PRP assay: inhibition of ADP-mediated platelet aggregation in vitro
# Format: cell-based
# Details: ADP-induced aggregation
# Method: The effect of testing the compound according to the invention on ADP-induced human platelet aggregation was assessed in a 96-well microtiter assay (see generally the procedures in Jantzen, H. M. et al. (1999) Thromb. Hemost. 81:111-117) or standard cuvette light transmittance aggregometry using either human platelet-rich plasma (PRP) or human washed platelets.
# For preparation of human platelet-rich plasma for aggregation assays, human venous blood was collected from healthy, drug-free volunteers into 0.38% sodium citrate (0.013 M, pH 7.0 final). Platelet-rich plasma (PRP) is prepared by centrifugation of whole blood at 160×g for 20 minutes at room temperature. The PRP layer is removed, transferred to a new tube, and the platelet count is adjusted, if necessary, to achieve a platelet concentration of ˜3×10^8 platelets/ml using platelet-poor plasma (PPP). PPP is prepared by centrifugation of the remaining blood sample (after removal of PRP) for 20 minutes at 800×g. This preparation of PRP can subsequently be used for aggregation assays in either a 96-well plate or standard cuvette aggregometry.
# For cuvette light transmittance aggregation assays, serial dilutions (1:3) of test compounds were prepared in 100% DMSO in a 96 well V-bottom plate (final DMSO concentration in the cuvette was 0.6%). The test compound (3 μl of serial dilutions in DMSO) was preincubated with PRP for 30-45 seconds prior to initiation of aggregation reactions, which were performed in a ChronoLog aggregometer by addition of agonist (5 or 10 μM ADP) to 490 μL of PRP at 37° C. In some cases, light transmittance aggregometry was performed using 490 μL of washed platelets (prepared as described above) at 37° C., and aggregation was initiated by addition of 5 μM ADP and 0.5 mg/ml human fibrinogen (American Diagnostics, Inc., Greenwich, Conn.). The aggregation reaction is recorded for ˜5 min, and maximum extent of aggregation is determined by the difference in extent of aggregation at baseline, compared to the maximum aggregation that occurs during the five minute period of the assay. Inhibition of aggregation was calculated as the maximum aggregation observed in the presence of inhibitor, compared to that in the absence of inhibitor. IC50s were derived by non-linear regression analysis using the Prism software (GraphPad, San Diego, Calif.).
# Inhibition of ADP-dependent aggregation was also determined in 96-well flat-bottom microtiter plates using a microtiter plate shaker and plate reader similar to the procedure described by Frantantoni et al., Am. J. Clin. Pathol. 94, 613 (1990). All steps are performed at room temperature. For 96-well plate aggregation using platelet-rich plasma (PRP), the total reaction volume of 0.2 ml/well includes 180 μl of PRP (˜3×10^8 platelets/ml, see above), 6 μl of either serial dilution of test compounds in 20% DMSO or buffer (for control wells), and 10 μl of 20×ADP agonist solution (100 μM). The OD of the samples is then determined at 450 nm using a microtiter plate reader (Softmax, Molecular Devices, Menlo Park, Calif.) resulting in the 0 minute reading. The plates are then agitated for 5 min on a microtiter plate shaker and the 5 minute reading is obtained in the plate reader. Aggregation is calculated from the decrease of OD at 450 nm at t=5 minutes compared to t=0 minutes and is expressed as % of the decrease in the ADP control samples after correcting for changes in the unaggregated control samples. IC50s were derived by non-linear regression analysis.
row,Structure (SMILES),IC50
1,"CNc1cc2[nH]c(=O)n(-c3ccc(C(=O)NC(C(=O)O)c4ccc(Cl)s4)cc3)c(=O)c2cc1F (stereo not shown) [Compound 5, 2-(5-chlorothiophen-2-yl)-2-(4-(6-fluoro-7-(methylamino)-2,4-dioxo-1,2-dihydroquinazolin-3(4H)-yl)benzamido)acetic acid]",10000 to 30000 nM

# Same assay, conditions: Homo sapiens, Platelet, ADP-induced aggregation
row,Structure (SMILES),IC50
1,"O=C(NCc1ccc(Cl)s1)c1ccc(-n2c(=O)[nH]c3cc(NCc4ccc(F)cc4)ccc3c2=O)cc1 [Compound 1, N-((5-chlorothiophen-2-yl)methyl)-4-(7-(4-fluorobenzylamino)-2,4-dioxo-1,2-dihydroquinazolin-3(4H)-yl)benzamide]",> 30000 nM
2,"O=C(NC(C(=O)O)c1cccs1)c1ccc(-n2c(=O)[nH]c3cc(NCc4ccc(F)cc4)ccc3c2=O)cc1 (stereo not shown) [Compound 2, 2-(4-(7-(4-fluorobenzylamino)-2,4-dioxo-1,2-dihydroquinazolin-3(4H)-yl)benzamido)-2-(thiophen-2-yl)acetic acid]",> 30000 nM

# Target: T1, P2Y12 receptor (Homo sapiens, UniProt Q9H244)
# T1 construct: endogenous in cells; host or cells: human platelets (outdated from blood banks or fresh), apyrase-washed, whole
# Test: platelet ADP receptor binding assay (ARB): inhibition of [3H]2-MeS-ADP binding to platelets
# Details: [3H]2-MeS-ADP binding to apyrase-washed human platelets
# How it was run: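 Apyrase-washed human platelets (1×10^8 per well) were preincubated 5 min with serial compound dilutions in Hepes-Tyrode's/0.1% BSA/0.6% DMSO, then incubated 15 min at room temperature with 1 nM [3H]2-MeS-ADP. Filter-bound radioactivity gave specific binding (nonspecific: 10 μM 2-MeS-ADP), and IC50s came from non-linear regression.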
# T1 sequence (Q9H244 whole entry): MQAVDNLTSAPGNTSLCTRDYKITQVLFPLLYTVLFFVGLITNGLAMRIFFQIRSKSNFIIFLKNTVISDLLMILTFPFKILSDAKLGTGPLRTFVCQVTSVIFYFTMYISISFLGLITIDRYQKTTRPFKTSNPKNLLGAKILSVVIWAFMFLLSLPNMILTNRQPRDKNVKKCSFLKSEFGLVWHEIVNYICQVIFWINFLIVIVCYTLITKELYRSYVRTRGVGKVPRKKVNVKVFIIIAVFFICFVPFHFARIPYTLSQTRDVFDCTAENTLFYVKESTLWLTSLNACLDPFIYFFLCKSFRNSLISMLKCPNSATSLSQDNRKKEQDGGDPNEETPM
row,Structure (SMILES),IC50
1,"O=C(NCc1ccc(Cl)s1)c1ccc(-n2c(=O)[nH]c3cc(NCc4ccc(F)cc4)ccc3c2=O)cc1 [Compound 1, N-((5-chlorothiophen-2-yl)methyl)-4-(7-(4-fluorobenzylamino)-2,4-dioxo-1,2-dihydroquinazolin-3(4H)-yl)benzamide]",50 to 500 nM
2,"O=C(NC(C(=O)O)c1cccs1)c1ccc(-n2c(=O)[nH]c3cc(NCc4ccc(F)cc4)ccc3c2=O)cc1 (stereo not shown) [Compound 2, 2-(4-(7-(4-fluorobenzylamino)-2,4-dioxo-1,2-dihydroquinazolin-3(4H)-yl)benzamido)-2-(thiophen-2-yl)acetic acid]",50 to 500 nM
3,"CNc1cc2[nH]c(=O)n(-c3ccc(C(=O)NC(C(=O)O)c4ccc(Cl)s4)cc3)c(=O)c2cc1F (stereo not shown) [Compound 5, 2-(5-chlorothiophen-2-yl)-2-(4-(6-fluoro-7-(methylamino)-2,4-dioxo-1,2-dihydroquinazolin-3(4H)-yl)benzamido)acetic acid]",< 50 nM
4,"COc1ccc2c(=O)n(-c3ccc(C(=O)NC(C(=O)O)c4ccc(Cl)s4)cc3)ccc2c1 (stereo not shown) [Compound 101, 2-(5-chlorothiophen-2-yl)-2-(4-(6-methoxy-1-oxoisoquinolin-2(1H)-yl)benzamido)acetic acid]",> 500 nM
5,"O=C(NC(C(=O)O)c1ccc(Cl)s1)c1ccc(-n2cc(Br)c3ccccc3c2=O)cc1 (stereo not shown) [Compound 102, 2-(4-(4-bromo-1-oxoisoquinolin-2(1H)-yl)benzamido)-2-(5-chlorothiophen-2-yl)acetic acid]",> 500 nM
6,"CNc1cc2[nH]c(=O)n(-c3ccc(CN(CC(=O)O)C(=O)c4ccc(Cl)s4)cc3)c(=O)c2cc1F [Compound 103, 2-(5-chloro-N-(4-(6-fluoro-7-(methylamino)-2,4-dioxo-1,2-dihydroquinazolin-3(4H)-yl)benzyl)thiophene-2-carboxamido)acetic acid]",> 500 nM
7,"CNc1cc2[nH]c(=O)n(-c3ccc(CNC(CC(=O)O)c4ccc(Cl)s4)cc3)c(=O)c2cc1F (stereo not shown) [Compound 104, 3-(5-chlorothiophen-2-yl)-3-(4-(6-fluoro-7-(methylamino)-2,4-dioxo-1,2-dihydroquinazolin-3(4H)-yl)benzylamino)propanoic acid]",50 to 500 nM
8,"O=C(NCc1ccc(Cl)s1)Nc1ccc(-n2c(=O)[nH]c3cc(NCc4ccc(F)cc4)ccc3c2=O)cc1 [Compound 107, 1-((5-chlorothiophen-2-yl)methyl)-3-(4-(7-(4-fluorobenzylamino)-2,4-dioxo-1,2-dihydroquinazolin-3(4H)-yl)phenyl)urea]",< 50 nM
9,"O=C(Nc1ccc(-n2c(=O)[nH]c3cc(NCc4ccc(F)cc4)ccc3c2=O)cc1)NC(C(=O)O)c1cccs1 (stereo not shown) [Compound 108, 2-(3-(4-(7-(4-fluorobenzylamino)-2,4-dioxo-1,2-dihydroquinazolin-3(4H)-yl)phenyl)ureido)-2-(thiophen-2-yl)acetic acid]",50 to 500 nM
10,"O=C(Nc1ccc(-n2c(=O)[nH]c3cc(NCc4ccc(F)cc4)ccc3c2=O)cc1)NC(Cc1cccs1)C(=O)O (stereo not shown) [Compound 109, 2-(3-(4-(7-(4-fluorobenzylamino)-2,4-dioxo-1,2-dihydroquinazolin-3(4H)-yl)phenyl)ureido)-3-(thiophen-2-yl)propanoic acid]",50 to 500 nM
11,"CNc1cc2[nH]c(=O)n(-c3ccc(NC(=O)NC(C(=O)O)c4ccc(Cl)s4)cc3)c(=O)c2cc1F (stereo not shown) [Compound 110, 2-(5-chlorothiophen-2-yl)-2-(3-(4-(6-fluoro-7-(methylamino)-2,4-dioxo-1,2-dihydroquinazolin-3(4H)-yl)phenyl)ureido)acetic acid]",> 500 nM
12,"CNc1cc2[nH]c(=O)n(-c3cccc(C(=O)NC(C(=O)O)c4ccc(Cl)s4)c3)c(=O)c2cc1F (stereo not shown) [Compound 111, 2-(5-chlorothiophen-2-yl)-2-(3-(6-fluoro-7-(methylamino)-2,4-dioxo-1,2-dihydroquinazolin-3(4H)-yl)benzamido)acetic acid]",> 500 nM
13,"CNc1cc2[nH]c(=O)n(-c3ccc(C(=O)NC(C(=O)O)c4ccc(Cl)s4)s3)c(=O)c2cc1F (stereo not shown) [Compound 112, 2-(5-chlorothiophen-2-yl)-2-(5-(6-fluoro-7-(methylamino)-2,4-dioxo-1,2-dihydroquinazolin-3(4H)-yl)thiophene-2-carboxamido)acetic acid]",50 to 500 nM
14,"CNc1cc2[nH]c(=O)n(-c3cc(C(=O)NC(C(=O)O)c4ccc(Cl)s4)cs3)c(=O)c2cc1F (stereo not shown) [Compound 113, 2-(5-chlorothiophen-2-yl)-2-(5-(6-fluoro-7-(methylamino)-2,4-dioxo-1,2-dihydroquinazolin-3(4H)-yl)thiophene-3-carboxamido)acetic acid]",> 500 nM
15,"CNc1cc2c(cc1F)C(=O)N(c1ccc(CC(=O)NC(C(=O)O)c3ccc(Cl)s3)cc1)CO2 (stereo not shown) [Compound 114, 2-(5-chlorothiophen-2-yl)-2-(2-(4-(6-fluoro-7-(methylamino)-4-oxo-2H-benzo[e][1,3]oxazin-3(4H)-yl)phenyl)acetamido)acetic acid]",> 500 nM
16,"CNc1cc2ncn(-c3ccc(C(=O)NC(C(=O)O)c4ccc(Cl)s4)cc3)c(=O)c2cc1F (stereo not shown) [Compound 116, 2-(5-chlorothiophen-2-yl)-2-(4-(6-fluoro-7-(methylamino)-4-oxoquinazolin-3(4H)-yl)benzamido)acetic acid]",50 to 500 nM
17,"CNc1cc2cnn(-c3ccc(C(=O)NC(C(=O)O)c4ccc(Cl)s4)cc3)c(=O)c2cc1F (stereo not shown) [Compound 117, 2-(5-chlorothiophen-2-yl)-2-(4-(7-fluoro-6-(methylamino)-1-oxophthalazin-2(1H)-yl)benzamido)acetic acid]",50 to 500 nM
18,"CNc1cc2c(cc1F)C(=O)N(c1ccc(CC(=O)NC(C(=O)OC)c3ccc(Cl)s3)cc1)CO2 (stereo not shown) [Compound 118, methyl 2-(5-chlorothiophen-2-yl)-2-(2-(4-(6-fluoro-7-(methylamino)-4-oxo-2H-benzo[e][1,3]oxazin-3(4H)-yl)phenyl)acetamido)acetate]",50 to 500 nM
19,"CCc1ccc2c(c1)CCN(c1ccc(C(=O)NC(C(=O)O)c3ccc(Cl)s3)cc1)C2=O (stereo not shown) [Compound 119, 2-(5-chlorothiophen-2-yl)-2-(4-(6-ethyl-1-oxo-3,4-dihydroisoquinolin-2(1H)-yl)benzamido)acetic acid]",> 500 nM
20,"CNc1cc2c(cc1F)C(=O)N(c1ccc(CC(=O)NC(C(=O)N(C)C)c3ccc(Cl)s3)cc1)CO2 (stereo not shown) [Compound 120, 2-(5-chlorothiophen-2-yl)-2-(2-(4-(6-fluoro-7-(methylamino)-4-oxo-2H-benzo[e][1,3]oxazin-3(4H)-yl)phenyl)acetamido)-N,N-dimethylacetamide]",> 500 nM
21,"CNc1cc2c(cc1F)C(=O)N(c1ccc(CC(=O)NC(C(=O)N3CCCC3)c3ccc(Cl)s3)cc1)CO2 (stereo not shown) [Compound 121, N-(1-(5-chlorothiophen-2-yl)-2-oxo-2-(pyrrolidin-1-yl)ethyl)-2-(4-(6-fluoro-7-(methylamino)-4-oxo-2H-benzo[e][1,3]oxazin-3(4H)-yl)phenyl)acetamide]",> 500 nM
22,"CNc1cc2c(cc1F)C(=O)N(c1ccc(CC(=O)NC(C(N)=O)c3ccc(Cl)s3)cc1)CO2 (stereo not shown) [Compound 122, N-(2-amino-1-(5-chlorothiophen-2-yl)-2-oxoethyl)-2-(4-(6-fluoro-7-(methylamino)-4-oxo-2H-benzo[e][1,3]oxazin-3(4H)-yl)phenyl)acetamide]",50 to 500 nM
